In ChEMBL document CHEMBL3714709, “T1R hetero-oligomeric taste receptors, cell lines that express said receptors, and taste compounds” (2008):
Calls of active or inactive are those of the source. The calls are words filed in the database; no cut-off is given here.

What was measured:
[1] = molecular target: Muscarinic acetylcholine receptor (Homo sapiens) (UniProt P20309+P08173+P11229+P08172+P08912); test: Inhibition of mAChR (unknown origin) expressed in HEK293 cells; type: cell-based
[2] = molecular target: T1, Taste receptor type 2 member 105 (Mus musculus) (UniProt Q9JKT4); test: Inhibition of mouse T2R5 expressed in HEK293 cells; type: cell-based
T1 sequence (whole entry): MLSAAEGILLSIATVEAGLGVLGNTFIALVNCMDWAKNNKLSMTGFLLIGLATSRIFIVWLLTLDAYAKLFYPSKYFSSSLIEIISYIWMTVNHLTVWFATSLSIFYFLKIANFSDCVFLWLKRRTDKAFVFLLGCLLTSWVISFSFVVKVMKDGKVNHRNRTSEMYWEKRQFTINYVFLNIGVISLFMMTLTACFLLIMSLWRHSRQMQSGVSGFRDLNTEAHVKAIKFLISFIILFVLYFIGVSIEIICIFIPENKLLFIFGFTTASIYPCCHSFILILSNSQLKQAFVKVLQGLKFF

T1R1/T1R3 (Homo sapiens) = T1R1/T1R3 (Homo sapiens) (UniProt Q7RTX0+Q7RTX1); test: Activation of human T1R1/T1R3; type: protein-complex assay

Row | inhibition [1] | inhibition [2] | Activity (T1R1/T1R3 (Homo sapiens)) | Compound
1 | inactive | inactive |  | COc1ccc(OC(C)C(=O)O)cc1 (stereo not given)
2 |  |  | inactive | N[C@H](Cc1c[nH]c2ccccc12)C(=O)O
3 |  |  | inactive | OC[C@H]1O[C@@](CO)(O[C@H]2O[C@H](CO)[C@@H](O)[C@H](O)[C@H]2O)[C@@H](O)[C@@H]1O
4 |  |  | inactive | O=C1NS(=O)(=O)c2ccccc21
